# Results as given in patent EP0435794A1, “Alkenyl- or heteroaryl thio, sulfone, sulfoxy herbicides” (RHONE-POULENC AGROCHIMIE, priority 1989, dated 1991).
# Test system: soja
# Assay: Exemple C: selectivity test in field crops, pre-emergence (crop); also: ranges in brackets are in %
# Format: in vivo
# Settings: dose 0.5 Kg m.a./ha, 24 days, 0 or 1 = selective
# Excerpt: (§1) Exemple C - Essai de sélectivité en grandes cultures avec application herbicide, en prélevée des espèces végétales
# (§2) Dans des pots de 7 X 7 X 8 cm remplis de terre agricole légère, on sème un nombre de graines déterminé en fonction de l'espèce végétale et de la grosseur de la graine.
# (§3) On recouvre ensuite les graines d'une couche de terre d'environ 3 mm d'épaisseur.
# (§4) Les pots sont alors traités par pulvérisation de bouillie en quantité correspondant à une dose volumique d'application de 500 l/ha et contenant la matière active à la concentration désirée.
# (§5) La bouillie a été préparée de la même manière qu'à l'exemple A.
# (§6) Les pots traités sont ensuite placés dans des bacs destinés à recevoir l'eau d'arrosage, en subirrigation, et maintenus pendant 24 jours à température ambiante sous 70 % d'humidité relative.
# (§7) Le relevé est effectué de la façon suivante:
# (§8) Au bout de 24 jours, on mesure un pourcentage (D) de destruction du nombre de pieds dans le pot traité par rapport au nombre de plantes dans les pots non traités (témoin). On mesure, sur les plantes traitées restantes, le pourcentage de réduction de taille (RT) par rapport aux plantes témoins.
# (§9) Le pourcentage de volume foliaire non détruit par le produit est donc donné par la formule: ([100-D] X [100-RT])/(100)= A [formula]
# (§10) Cette valeur A est transformée en notation de 0 à 5 selon l'échelle suivante:
# (§11) Ainsi, un produit est jugé comme sélectif vis à vis de la culture lorsque la valeur A notée est de 0 ou 1.
# (§12) Les résultats obtenus sont présentés dans l'exemple C pour des doses d'application de 500, 1000, 2000 ou 4000 g de matière active par hectare selon les produits.
# (§13) Les espèces végétales utilisées dans cet exemple sont:
# (§14) Comme on peut le voir sur le tableau de résultats de cet exemple C, de nombreux produits présentent une excellente activité antigraminée de prélevée tout en montrant une excellente sélectivité pour 1 ou 2 ou 3 ou 4 des 4 cultures testées = blé, maïs, riz, soja.
row,SMILES,Notation de l'activité herbicide GLY
1,O=S(=O)(CC(O)(CBr)c1ccc(F)c(Cl)c1)c1ccsc1 (stereo not drawn) [compound 65],0 (90 à 100)
2,O=S(=O)(CC(O)(CBr)c1cccc(F)c1)c1sccc1Cl (stereo not drawn) [compound 67],0 (90 à 100)

# Same assay, conditions: dose 1 Kg m.a./ha, 24 days, 0 or 1 = selective
row,SMILES,Notation de l'activité herbicide GLY
1,C=C(CS(=O)(=O)c1sc(C)nc1C)c1cccc(F)c1 [compound 45],0 (90 à 100)
2,C=C(CS(=O)(=O)c1cc(C)sc1C)c1ccccc1 [compound 51],0 (90 à 100)
3,C=C(CS(=O)(=O)c1sc(C)nc1C)c1cccc(C)c1 [compound 47],0 (90 à 100)
4,Cc1cc(C(O)(CBr)CS(=O)(=O)c2ccsc2)ccc1F (stereo not drawn) [compound 66],1 (70 à 90)

# Test system: maïs
# Assay: as above
# Format: in vivo
# Settings: dose 0.5 Kg m.a./ha, 24 days, 0 or 1 = selective
# Excerpt: as §1, §2, §3, §4, §5, §6, §7, §8, §9, §10, §11, §12, §13, §14
row,SMILES,Notation de l'activité herbicide ZEA
1,O=S(=O)(CC(O)(CBr)c1ccc(F)c(Cl)c1)c1ccsc1 (stereo not drawn) [compound 65],0 (90 à 100)
2,O=S(=O)(CC(O)(CBr)c1cccc(F)c1)c1sccc1Cl (stereo not drawn) [compound 67],1 (70 à 90)

# Same assay, conditions: dose 1 Kg m.a./ha, 24 days, 0 or 1 = selective
row,SMILES,Notation de l'activité herbicide ZEA
1,C=C(CS(=O)(=O)c1sc(C)nc1C)c1cccc(F)c1 [compound 45],0 (90 à 100)
2,C=C(CS(=O)(=O)c1cc(C)sc1C)c1ccccc1 [compound 51],0 (90 à 100)
3,C=C(CS(=O)(=O)c1sc(C)nc1C)c1cccc(C)c1 [compound 47],1 (70 à 90)
4,Cc1cc(C(O)(CBr)CS(=O)(=O)c2ccsc2)ccc1F (stereo not drawn) [compound 66],2 (50 à 70)

# Test system: blé
# Assay: as above
# Format: in vivo
# Settings: dose 0.5 Kg m.a./ha, 24 days, 0 or 1 = selective
# Excerpt: as §1, §2, §3, §4, §5, §6, §7, §8, §9, §10, §11, §12, §13, §14
row,SMILES,Notation de l'activité herbicide TRZ
1,O=S(=O)(CC(O)(CBr)c1ccc(F)c(Cl)c1)c1ccsc1 (stereo not drawn) [compound 65],0 (90 à 100)
2,O=S(=O)(CC(O)(CBr)c1cccc(F)c1)c1sccc1Cl (stereo not drawn) [compound 67],0 (90 à 100)

# Same assay, conditions: dose 1 Kg m.a./ha, 24 days, 0 or 1 = selective
row,SMILES,Notation de l'activité herbicide TRZ
1,C=C(CS(=O)(=O)c1sc(C)nc1C)c1cccc(F)c1 [compound 45],1 (70 à 90)
2,C=C(CS(=O)(=O)c1cc(C)sc1C)c1ccccc1 [compound 51],0 (90 à 100)
3,C=C(CS(=O)(=O)c1sc(C)nc1C)c1cccc(C)c1 [compound 47],0 (90 à 100)
4,Cc1cc(C(O)(CBr)CS(=O)(=O)c2ccsc2)ccc1F (stereo not drawn) [compound 66],1 (70 à 90)

# Test system: riz
# Assay: as above
# Format: in vivo
# Settings: dose 0.5 Kg m.a./ha, 24 days, 0 or 1 = selective
# Excerpt: as §1, §2, §3, §4, §5, §6, §7, §8, §9, §10, §11, §12, §13, §14
row,SMILES,Notation de l'activité herbicide ORY
1,O=S(=O)(CC(O)(CBr)c1ccc(F)c(Cl)c1)c1ccsc1 (stereo not drawn) [compound 65],3 (30 à 50)
2,O=S(=O)(CC(O)(CBr)c1cccc(F)c1)c1sccc1Cl (stereo not drawn) [compound 67],0 (90 à 100)

# Same assay, conditions: dose 1 Kg m.a./ha, 24 days, 0 or 1 = selective
row,SMILES,Notation de l'activité herbicide ORY
1,C=C(CS(=O)(=O)c1sc(C)nc1C)c1cccc(F)c1 [compound 45],0 (90 à 100)
2,C=C(CS(=O)(=O)c1cc(C)sc1C)c1ccccc1 [compound 51],0 (90 à 100)
3,C=C(CS(=O)(=O)c1sc(C)nc1C)c1cccc(C)c1 [compound 47],2 (50 à 70)
4,Cc1cc(C(O)(CBr)CS(=O)(=O)c2ccsc2)ccc1F (stereo not drawn) [compound 66],2 (50 à 70)

# Test system: Echinochloa crus-galli
# Assay: Exemple C: selectivity test in field crops, pre-emergence (weed)
# Format: in vivo
# Settings: dose 0.5 Kg m.a./ha, 24 days
# Excerpt: as §1, §2, §3, §4, §5, §6, §7, §8, §9, §10, §11, §12
# (§15) Les espèces végétales utilisées dans cet exemple sont: […]
row,SMILES,Notation de l'activité herbicide ECh
1,O=S(=O)(CC(O)(CBr)c1ccc(F)c(Cl)c1)c1ccsc1 (stereo not drawn) [compound 65],5 (O à 10)
2,O=S(=O)(CC(O)(CBr)c1cccc(F)c1)c1sccc1Cl (stereo not drawn) [compound 67],4 (10 à 30)

# Same assay, conditions: dose 1 Kg m.a./ha, 24 days
row,SMILES,Notation de l'activité herbicide ECh
1,C=C(CS(=O)(=O)c1sc(C)nc1C)c1cccc(F)c1 [compound 45],5 (O à 10)
2,C=C(CS(=O)(=O)c1cc(C)sc1C)c1ccccc1 [compound 51],4 (10 à 30)
3,C=C(CS(=O)(=O)c1sc(C)nc1C)c1cccc(C)c1 [compound 47],4 (10 à 30)
4,Cc1cc(C(O)(CBr)CS(=O)(=O)c2ccsc2)ccc1F (stereo not drawn) [compound 66],5 (O à 10)

# Test system: Sorghum halepense
# Assay: as above
# Format: in vivo
# Settings: dose 0.5 Kg m.a./ha, 24 days
# Excerpt: as §1, §2, §3, §4, §5, §6, §7, §8, §9, §10, §11, §12, §15
row,SMILES,Notation de l'activité herbicide SOR
1,O=S(=O)(CC(O)(CBr)c1ccc(F)c(Cl)c1)c1ccsc1 (stereo not drawn) [compound 65],5 (O à 10)
2,O=S(=O)(CC(O)(CBr)c1cccc(F)c1)c1sccc1Cl (stereo not drawn) [compound 67],1 (70 à 90)

# Same assay, conditions: dose 1 Kg m.a./ha, 24 days
row,SMILES,Notation de l'activité herbicide SOR
1,C=C(CS(=O)(=O)c1sc(C)nc1C)c1cccc(F)c1 [compound 45],5 (O à 10)
2,C=C(CS(=O)(=O)c1cc(C)sc1C)c1ccccc1 [compound 51],4 (10 à 30)
3,C=C(CS(=O)(=O)c1sc(C)nc1C)c1cccc(C)c1 [compound 47],3 (30 à 50)
4,Cc1cc(C(O)(CBr)CS(=O)(=O)c2ccsc2)ccc1F (stereo not drawn) [compound 66],5 (O à 10)

# Test system: Alopecurus myosuroides
# Assay: as above
# Format: in vivo
# Settings: dose 0.5 Kg m.a./ha, 24 days
# Excerpt: as §1, §2, §3, §4, §5, §6, §7, §8, §9, §10, §11, §12, §15
row,SMILES,Notation de l'activité herbicide ALO
1,O=S(=O)(CC(O)(CBr)c1ccc(F)c(Cl)c1)c1ccsc1 (stereo not drawn) [compound 65],0 (90 à 100)
2,O=S(=O)(CC(O)(CBr)c1cccc(F)c1)c1sccc1Cl (stereo not drawn) [compound 67],2 (50 à 70)

# Same assay, conditions: dose 1 Kg m.a./ha, 24 days
row,SMILES,Notation de l'activité herbicide ALO
1,C=C(CS(=O)(=O)c1sc(C)nc1C)c1cccc(F)c1 [compound 45],5 (O à 10)
2,C=C(CS(=O)(=O)c1cc(C)sc1C)c1ccccc1 [compound 51],4 (10 à 30)
3,C=C(CS(=O)(=O)c1sc(C)nc1C)c1cccc(C)c1 [compound 47],5 (O à 10)
4,Cc1cc(C(O)(CBr)CS(=O)(=O)c2ccsc2)ccc1F (stereo not drawn) [compound 66],3 (30 à 50)

# Test system: Setaria faberii
# Assay: as above
# Format: in vivo
# Settings: dose 0.5 Kg m.a./ha, 24 days
# Excerpt: as §1, §2, §3, §4, §5, §6, §7, §8, §9, §10, §11, §12, §15
row,SMILES,Notation de l'activité herbicide SET
1,O=S(=O)(CC(O)(CBr)c1ccc(F)c(Cl)c1)c1ccsc1 (stereo not drawn) [compound 65],0 (90 à 100)
2,O=S(=O)(CC(O)(CBr)c1cccc(F)c1)c1sccc1Cl (stereo not drawn) [compound 67],4 (10 à 30)

# Same assay, conditions: dose 1 Kg m.a./ha, 24 days
row,SMILES,Notation de l'activité herbicide SET
1,C=C(CS(=O)(=O)c1sc(C)nc1C)c1cccc(F)c1 [compound 45],3 (30 à 50)
2,C=C(CS(=O)(=O)c1cc(C)sc1C)c1ccccc1 [compound 51],4 (10 à 30)
3,C=C(CS(=O)(=O)c1sc(C)nc1C)c1cccc(C)c1 [compound 47],2 (50 à 70)
4,Cc1cc(C(O)(CBr)CS(=O)(=O)c2ccsc2)ccc1F (stereo not drawn) [compound 66],3 (30 à 50)

# Test system: Digitaria sanguinalis
# Assay: as above
# Format: in vivo
# Settings: dose 0.5 Kg m.a./ha, 24 days
# Excerpt: as §1, §2, §3, §4, §5, §6, §7, §8, §9, §10, §11, §12, §15
row,SMILES,Notation de l'activité herbicide DIG
1,O=S(=O)(CC(O)(CBr)c1ccc(F)c(Cl)c1)c1ccsc1 (stereo not drawn) [compound 65],5 (O à 10)
2,O=S(=O)(CC(O)(CBr)c1cccc(F)c1)c1sccc1Cl (stereo not drawn) [compound 67],5 (O à 10)

# Same assay, conditions: dose 1 Kg m.a./ha, 24 days
row,SMILES,Notation de l'activité herbicide DIG
1,C=C(CS(=O)(=O)c1sc(C)nc1C)c1cccc(F)c1 [compound 45],4 (10 à 30)
2,C=C(CS(=O)(=O)c1cc(C)sc1C)c1ccccc1 [compound 51],5 (O à 10)
3,C=C(CS(=O)(=O)c1sc(C)nc1C)c1cccc(C)c1 [compound 47],5 (O à 10)
4,Cc1cc(C(O)(CBr)CS(=O)(=O)c2ccsc2)ccc1F (stereo not drawn) [compound 66],5 (O à 10)

# Test system: Panicum milicaeum
# Assay: as above
# Format: in vivo
# Settings: dose 0.5 Kg m.a./ha, 24 days
# Excerpt: as §1, §2, §3, §4, §5, §6, §7, §8, §9, §10, §11, §12, §15
row,SMILES,Notation de l'activité herbicide PAN
1,O=S(=O)(CC(O)(CBr)c1ccc(F)c(Cl)c1)c1ccsc1 (stereo not drawn) [compound 65],3 (30 à 50)
2,O=S(=O)(CC(O)(CBr)c1cccc(F)c1)c1sccc1Cl (stereo not drawn) [compound 67],4 (10 à 30)

# Same assay, conditions: dose 1 Kg m.a./ha, 24 days
row,SMILES,Notation de l'activité herbicide PAN
1,C=C(CS(=O)(=O)c1sc(C)nc1C)c1cccc(F)c1 [compound 45],5 (O à 10)
2,C=C(CS(=O)(=O)c1cc(C)sc1C)c1ccccc1 [compound 51],4 (10 à 30)
3,C=C(CS(=O)(=O)c1sc(C)nc1C)c1cccc(C)c1 [compound 47],5 (O à 10)
4,Cc1cc(C(O)(CBr)CS(=O)(=O)c2ccsc2)ccc1F (stereo not drawn) [compound 66],3 (30 à 50)
